In patent US12590057B2, “Crystalline complexes” (Theracryf PLC, priority 2020, dated 2026):

How the values were obtained:
Assay type in all cases: physicochemical
[1] = Variable humidity XRPD (VH-XRPD) at 25° C.; settings: 25° C.
Description: Non-ambient conditions: XRPD diffractograms were collected on a PANalytical Empyrean diffractometer using Cu Kα radiation (45 kV, 40 mA) in reflection geometry. The instrument is fitted with an Anton Paar CHC plus^+ stage fitted with graphite/Kapton windows and equipped with air cooling coupled with a proUmid MHG32 Modular Humidity Generator or a low vacuum pump system using an Edwards RV3 pump. A programmable divergence slit (in automatic mode), with a 10 mm fixed incident beam mask, Ni filter and 0.04 rad Soller slits were used on the incident beam. A PIXcel^3D detector, placed on the diffracted beam, was fitted with a programmable anti-scatter slit (in automatic mode) and 0.04 rad Soller slits. The software used for data collection was X'Pert Data Collector and the data analysed and presented using Diffrac Plus EVA or Highscore Plus. For variable humidity (VH-XRPD) experiments the samples were prepared and analysed in an Anton Paar chromed low-profile sample holder with silicon wafer insert. The measurement parameters are as per the standard screening data collection method (detailed above). For all variable humidity XRPD experiments, a pattern was recorded every hour. […] The Form 1 sample was loaded into the VH chamber, which was set to 40% RH and 25° C. and then the RH was decreased in 10% decrements to 10% RH followed by increasing the RH in 10% increments to 90% RH, while maintaining the temperature at 25° C. […] The sample then quickly transitioned from Form 1 at 80% RH to Form 2 at 90% RH. A variable humidity (VH) XRPD experiment was performed to examine how Form 3 exists under different RH conditions. […] The sample was stable as Form 2 for 8 hours at 80% RH. At 90% RH Form 2 existed for 2 hours before the sample deliquesced in the humidity chamber.

[2] = Typical water content of the crystalline forms
Protocol: The water content of a sample can be determined by any suitable means as will be apparent to one of skill in the art. In one embodiment, the water content is determined by Karl-Fischer titration. In one embodiment, the water content is determined by thermogravimetric analysis (TGA). In one embodiment, the water content is determined by gravimetric vapour sorption (GVS). After formation of the crystalline complex according to the invention, the water content may be as low as 1-3% w/w. However, after exposure of the complex to ambient conditions (25° C., 40% RH) the material typically equilibrates (e.g. over a period of 3-7 days) to a water content of up to 5-7% w/w. It has been found, however, that Form 3, once equilibrated to 5-7% w/w water, maintains physical form at 60% RH making it unexpectedly stable over the 0% and 60% humidity range.

[3] = XRPD physical form after storage; settings: double bagged in HDPE bottle
Protocol: XRPD diffractograms were collected on a PANalytical Empyrean diffractometer using Cu Kα radiation (45 kV, 40 mA) in transmission geometry. A 0.5° sat, 4 mm mask and 0.04 rad Soller slits with a focusing mirror were used on the incident beam. A PIXcel^3D detector, placed on the diffracted beam, was fitted with a receiving slit and 0.04 rad Soller slits. The software used for data collection was X'Pert Data Collector using X'Pert Operator Interface. The data were analysed and presented using Diffrac Plus EVA or HighScore Plus.
After removal from the vacuum oven (day 0), Example 3 was reanalysed by XRPD in reflection mode on days 7, 9 and 29.
(§1) In a separate study, samples of Form 3 (Example 5.3; batch ref. 491-PAL-18) having an initial water content by KF of 2.3% w/w were tested for water content at various time points after storage double bagged in a HDPE bottle under various conditions as shown in Table 17.

[4] = Preliminary stability study, related substances by HPLC
Protocol: Analysis of samples of sulforaphane:alpha-cyclodextrin complexes as prepared herein were carried out by HPLC according to the following method: • Column—Phenomenex Gemini C18, 5 μm, 110 Å, 250×4.6 mm; • Mobile Phase A: Water (+0.1% TFA); • Mobile Phase B: Acetonitrile (+0.1% TFA); • Flow: 1.5 mL/min; • Injection Volume: 10 μL; • Column Temperature: 25° C.; • Run Time: 40 minutes; • Sample preparation—Accurately weighed and transferred about 320 mg±30 mg of the sample to a 25-mL volumetric flask, added about 15 mL of diluent (70% water, 30% acetonitrile, 0.1% TFA) and mixed until dissolved. Diluted to volume with diluent and mixed. Transferred 3-4 mL to a syringe and filtered using a 0.45 PTFE filter, discarding the first 1-2 ml, and filtered into an autosampler vial and sealed with PTFE lined cap (prepared in duplicate); • HPLC Gradient according to Table 12
Sulforaphane and certain related impurity peaks are summarised in Table 13, Characterisation of the impurities was carried out by LC-MS and ^1H-NMR. Relative Retention Times (RRT) are based on the HPLC method described above.
Samples of Form 1 (batch ref. LS19-0004-S-8002), Form 3 prepared by minimally-agitated drying (Example 5.3; batch ref. 491-PAL-18) and Form 3 prepared by continuously-agitated filter drying (Example 5B—trial 5; batch ref. 00173-005) were stored at 5° C. (Table 14) and at 25° C./60% RH (Table 15) for 8 weeks in 60 ml Duma® bottles fitted with 45 mm Duma® caps and samples were analysed by HPLC according to the above method.

[5] = KF water content of stability samples
Protocol: The water content of each sample was measured on a Metrohm 874 Oven Sample Processor at 150° C. with 851 Titrano Coulometer using Hydranal Coulomat AG oven reagent and nitrogen purge. Weighed solid samples were introduced into a sealed sample vial. Approximately 10 mg of sample was used per titration and duplicate determinations were made. […] Data collection and analysis were performed using Tiamo software.
The water content of samples of Form 1 (batch ref. LS19-0004-3-8002), Form 3 prepared by minimally-agitated drying ([…]; batch ref. 491-PAL-18) and Form 3 prepared by continuously-agitated filter drying (Example 5B trial 5; batch ref. 00173-005) was analysed by KF at the start of the stability study (initial) and after 2, 4 and 8 weeks storage in 60 ml Duma® bottles fitted with 45 mm Duma® caps (without desiccant) at 25° C./60% RH—see Table 16;
as §1

[6] = 25° C./60% RH stability, Initial
[7] = 2 weeks, Duma bottles without desiccant, 25° C./60% RH
[8] = 4 weeks, Duma bottles without desiccant, 25° C./60% RH
[9] = 8 weeks, Duma bottles without desiccant, 25° C./60% RH
[10] = Initial, Duma bottles without desiccant, 25° C./60% RH study

C[S+]([O-])CCCCN=C=S.OCC1OC2OC3C(CO)OC(OC4C(CO)OC(OC5C(CO)OC(OC6C(CO)OC(OC7C(CO)OC(OC1C(O)C2O)C(O)C7O)C(O)C6O)C(O)C5O)C(O)C4O)C(O)C3O (centres unmarked) [Form 2]
Stability at 25° C. (RH range in which the form is stable) [1]: Above 80% RH
Typical water content [2]: 13-20 % w/w

C[S+]([O-])CCCCN=C=S.OC[C@H]1O[C@@H]2O[C@H]3[C@H](O)[C@@H](O)[C@@H](O[C@H]4[C@H](O)[C@@H](O)[C@@H](O[C@H]5[C@H](O)[C@@H](O)[C@@H](O[C@H]6[C@H](O)[C@@H](O)[C@@H](O[C@H]7[C@H](O)[C@@H](O)[C@@H](O[C@H]1[C@H](O)[C@H]2O)O[C@@H]7CO)O[C@@H]6CO)O[C@@H]5CO)O[C@@H]4CO)O[C@@H]3CO [Form 3 (Example 5.3)]
XRPD main peaks of stability sample ([3]; 1 month, 40° C./75% RH): concordant with Form 3
XRPD main peaks of stability sample ([3]; 3 month, 25° C./60% RH): concordant with Form 3
Related substances, HPLC RRT 0.56 (Dimer) ([4]; 5° C. stability, 8 wk): <0.05 % Area
Related substances, HPLC RRT 0.60 (α-CD adduct) ([4]; 5° C. stability, 8 wk): 1.19 % Area
Related substances, HPLC RRT 1.14 (Mixed dimer) ([4]; 5° C. stability, 8 wk): 0.05 % Area
Related substances, HPLC RRT 1.21 (Erysolin) ([4]; 5° C. stability, 8 wk): 0.28 % Area
Related substances, HPLC RRT 1.58 (Thioether dimer) ([4]; 5° C. stability, 8 wk): 0.07 % Area
Related substances, Total Impurities ([4]; 5° C. stability, 8 wk): 1.98 % Area
Related substances, HPLC RRT 0.56 (Dimer) ([4]; 5° C. stability, Initial): <0.05 % Area
Related substances, HPLC RRT 0.60 (α-CD adduct) ([4]; 5° C. stability, Initial): 0.95 % Area
Related substances, HPLC RRT 1.14 (Mixed dimer) ([4]; 5° C. stability, Initial): 0.05 % Area
Related substances, HPLC RRT 1.21 (Erysolin) ([4]; 5° C. stability, Initial): 0.29 % Area
Related substances, HPLC RRT 1.58 (Thioether dimer) ([4]; 5° C. stability, Initial): 0.08 % Area
Related substances, Total Impurities ([4]; 5° C. stability, Initial): 1.71 % Area
Related substances, HPLC RRT 0.56 (Dimer) ([4]; 25° C./60% RH stability, 8 wk): 0.26 % Area
Related substances, HPLC RRT 0.60 (α-CD adduct) ([4]; 25° C./60% RH stability, 8 wk): 3.21 % Area
Related substances, HPLC RRT 1.14 (Mixed dimer) ([4]; 25° C./60% RH stability, 8 wk): 0.05 % Area
Related substances, HPLC RRT 1.21 (Erysolin) ([4]; 25° C./60% RH stability, 8 wk): 0.27 % Area
Related substances, HPLC RRT 1.58 (Thioether dimer) ([4]; 25° C./60% RH stability, 8 wk): 0.07 % Area
Related substances, Total Impurities ([4]; 25° C./60% RH stability, 8 wk): 4.57 % Area
Related substances, HPLC RRT 0.56 (Dimer) [4, 6]: <0.05 % Area
Related substances, HPLC RRT 0.60 (α-CD adduct) [4, 6]: 0.95 % Area
Related substances, HPLC RRT 1.14 (Mixed dimer) [4, 6]: 0.05 % Area
Related substances, HPLC RRT 1.21 (Erysolin) [4, 6]: 0.29 % Area
Related substances, HPLC RRT 1.58 (Thioether dimer) [4, 6]: 0.08 % Area
Related substances, Total Impurities [4, 6]: 1.71 % Area
KF water content [5, 7]: 2.5 % w/w
KF water content [5, 8]: 2.1 % w/w
KF water content ([5]; 5° C., 1 month, double bagged in HDPE bottle): 4.2 % w/w
KF water content ([5]; 5° C., 3 months, double bagged in HDPE bottle): 4.6 % w/w
KF water content ([5]; 5° C., 6 months, double bagged in HDPE bottle): 4.7 % w/w
KF water content ([5]; 5° C., Initial, double bagged in HDPE bottle): 2.3 % w/w
KF water content [5, 9]: 3.2 % w/w
KF water content ([5]; 25° C./60% RH, 1 month, double bagged in HDPE bottle): 6.1 % w/w
KF water content ([5]; 25° C./60% RH, 3 months, double bagged in HDPE bottle): 5.7 % w/w
KF water content ([5]; 25° C./60% RH, 6 months, double bagged in HDPE bottle): 6.1 % w/w
KF water content ([5]; 25° C./60% RH, Initial, double bagged in HDPE bottle): 2.3 % w/w
KF water content ([5]; 40° C./75% RH, 1 month, double bagged in HDPE bottle): 6.2 % w/w
KF water content ([5]; 40° C./75% RH, 3 months, double bagged in HDPE bottle): 6.2 % w/w
KF water content ([5]; 40° C./75% RH, Initial, double bagged in HDPE bottle): 2.3 % w/w
KF water content [5, 10]: 2.4 % w/w

C[S+]([O-])CCCCN=C=S.OC[C@H]1O[C@@H]2O[C@H]3[C@H](O)[C@@H](O)[C@@H](O[C@H]4[C@H](O)[C@@H](O)[C@@H](O[C@H]5[C@H](O)[C@@H](O)[C@@H](O[C@H]6[C@H](O)[C@@H](O)[C@@H](O[C@H]7[C@H](O)[C@@H](O)[C@@H](O[C@H]1[C@H](O)[C@H]2O)O[C@@H]7CO)O[C@@H]6CO)O[C@@H]5CO)O[C@@H]4CO)O[C@@H]3CO [Form 3 (Example 5B-trial 5)]
Related substances, HPLC RRT 0.56 (Dimer) ([4]; 5° C. stability, 8 wk): 0.15 % Area
Related substances, HPLC RRT 0.60 (α-CD adduct) ([4]; 5° C. stability, 8 wk): 0.42 % Area
Related substances, HPLC RRT 1.14 (Mixed dimer) ([4]; 5° C. stability, 8 wk): 0.05 % Area
Related substances, HPLC RRT 1.21 (Erysolin) ([4]; 5° C. stability, 8 wk): 0.29 % Area
Related substances, HPLC RRT 1.58 (Thioether dimer) ([4]; 5° C. stability, 8 wk): <0.05 % Area
Related substances, Total Impurities ([4]; 5° C. stability, 8 wk): 1.30 % Area
Related substances, HPLC RRT 0.56 (Dimer) ([4]; 5° C. stability, Initial): 0.15 % Area
Related substances, HPLC RRT 0.60 (α-CD adduct) ([4]; 5° C. stability, Initial): 0.36 % Area
Related substances, HPLC RRT 1.14 (Mixed dimer) ([4]; 5° C. stability, Initial): <0.05 % Area
Related substances, HPLC RRT 1.21 (Erysolin) ([4]; 5° C. stability, Initial): 0.28 % Area
Related substances, HPLC RRT 1.58 (Thioether dimer) ([4]; 5° C. stability, Initial): <0.05 % Area
Related substances, Total Impurities ([4]; 5° C. stability, Initial): 1.16 % Area
Related substances, HPLC RRT 0.56 (Dimer) ([4]; 25° C./60% RH stability, 8 wk): 0.28 % Area
Related substances, HPLC RRT 0.60 (α-CD adduct) ([4]; 25° C./60% RH stability, 8 wk): 1.15 % Area
Related substances, HPLC RRT 1.14 (Mixed dimer) ([4]; 25° C./60% RH stability, 8 wk): 0.06 % Area
Related substances, HPLC RRT 1.21 (Erysolin) ([4]; 25° C./60% RH stability, 8 wk): 0.28 % Area
Related substances, HPLC RRT 1.58 (Thioether dimer) ([4]; 25° C./60% RH stability, 8 wk): <0.05 % Area
Related substances, Total Impurities ([4]; 25° C./60% RH stability, 8 wk): 2.35 % Area
Related substances, HPLC RRT 0.56 (Dimer) [4, 6]: 0.15 % Area
Related substances, HPLC RRT 0.60 (α-CD adduct) [4, 6]: 0.36 % Area
Related substances, HPLC RRT 1.14 (Mixed dimer) [4, 6]: <0.05 % Area
Related substances, HPLC RRT 1.21 (Erysolin) [4, 6]: 0.28 % Area
Related substances, HPLC RRT 1.58 (Thioether dimer) [4, 6]: <0.05 % Area
Related substances, Total Impurities [4, 6]: 1.16 % Area
KF water content [5, 7]: 3.3 % w/w
KF water content [5, 8]: 2.6 % w/w
KF water content [5, 9]: 3.6 % w/w
KF water content [5, 10]: 2.9 % w/w
